Test results: ChEMBL document CHEMBL1132023, “Synthesis and anticancer evaluation of certain alpha-methylene-gamma-(4-substituted phenyl)-gamma-butyrolactone bearing thymine, uracil, and 5-bromouracil” (1999)

Columns and labels:
Type in all cases: functional
Conditions in all cases: Homo sapiens
LOX IMVI = test: In vitro inhibition of Melanoma LOX IM VI cell lines
NCI-H460 [1] = test: In vitro inhibition of Non-Small Cell Lung Cancer NCI-H460 cell lines( least sensitive cell)
A549 = test: In vitro inhibition of Non-Small Cell Lung Cancer A549/ATCC cell lines
SNB-19 [2] = test: In vitro inhibition of CNS Cancer SNB-19 cell lines
PC-3 = test: In vitro inhibition of Prostate Cancer PC-3 cell lines
DU-145 = test: In vitro inhibition of Prostate Cancer DU-145 cell lines
SW-620 = test: In vitro inhibition of Colon Cancer SW-620 cell lines
COLO 205 [3] = test: In vitro inhibition of Colon Cancer COLO 205 cell lines( most sensitive cell)
Malme-3M = test: In vitro inhibition of Melanoma MALME-3M cell lines
SK-OV-3 = test: In vitro inhibition of Ovarian Cancer SK-OV-3 cell lines
IGROV-1 = test: In vitro inhibition of Ovarian Cancer IGROV1 cell lines
Hs-578T [4] = test: In vitro inhibition of Breast Cancer Hs 578.T cell lines(The least sensitive cell)
MDA-MB-435 = test: In vitro inhibition of Breast Cancer MDA-MB-435 cell lines
U-251 = test: In vitro inhibition of CNS Cancer U-251 cell lines
TK-10 = test: In vitro inhibition of Renal Cancer TK-10 cell lines
ACHN = test: In vitro inhibition of Renal Cancer ACHN cell lines
HL-60 [5] = test: In vitro inhibition of Leukemia HL-60(TB) cell lines
RPMI-8226 [6] = test: In vitro inhibition of Leukemia RPMI-8226 cell lines
SNB-19 [7] = test: In vitro inhibition of CNS Cancer SNB-19 cell lines( least sensitive cell)
NCI-H460 [8] = test: In vitro inhibition of Non-Small Cell Lung Cancer NCI-H460 cell lines
Hs-578T [9] = test: In vitro inhibition of Breast Cancer Hs 578.T cell lines
HL-60 [10] = test: In vitro inhibition of Leukemia HL-60(TB) cell lines( most sensitive cell)
COLO 205 [11] = test: In vitro inhibition of Colon Cancer COLO 205 cell lines
RPMI-8226 [12] = test: In vitro inhibition of Leukemia RPMI-8226 cell lines( most sensitive cell)
NCI-H460 [13] = test: In vitro inhibition of Non-Small Cell Lung Cancer NCI-H460 cell lines(least sensitive cell)
Hs-578T [14] = test: In vitro inhibition of Breast Cancer Hs 578.T cell lines( least sensitive cell)
SNB-19 [15] = test: In vitro inhibition of CNS Cancer SNB-19 cell lines(least sensitive cell)
HL-60 [16] = test: In vitro inhibition of Leukemia HL-60(TB) cell lines(most sensitive cell)
HL-60 [17] = test: In vitro inhibition of Leukemia HL-60(TB) cell lines ( most sensitive cell)

Compound | GI50 (LOX IMVI) | GI50 (A549) | GI50 (SNB-19 [2]) | GI50 (PC-3) | GI50 (DU-145) | GI50 (SW-620) | GI50 (COLO 205 [3]) | GI50 (Malme-3M) | GI50 (SK-OV-3) | GI50 (IGROV-1) | GI50 (MDA-MB-435) | GI50 (U-251) | GI50 (TK-10) | GI50 (ACHN) | GI50 (HL-60 [5]) | GI50 (RPMI-8226 [6]) | GI50 (NCI-H460 [8]) | GI50 (Hs-578T [9]) | GI50 (COLO 205 [11]) | GI50 (Hs-578T [14]) | other results
C=C1CC(Cn2cc(C)c(=O)[nH]c2=O)(c2ccc(F)cc2)OC1=O (configuration not stated) | 4270 nM | 17.8 µM | 14.8 µM | 9.12 µM | 7.59 µM | 3630 nM | 1580 nM | 3.55 µM | 16.2 µM | 5.5 µM | 5.62 µM | 11.5 µM | 4.57 µM | 3.55 µM | 2570 nM | 3550 nM |  |  |  |  | GI50 (NCI-H460 [1]): 19.1 µM; GI50 (Hs-578T [4]): 19.1 µM
C=C1CC(Cn2ccc(=O)[nH]c2=O)(c2ccc(-c3ccccc3)cc2)OC1=O (configuration not stated) | 209 nM | 10.7 µM |  | 1.32 µM | 0.2 µM | 170 nM |  | 1.58 µM | 10.5 µM | 0.708 µM | 0.49 µM | 10 µM | 0.955 µM | 2.29 µM |  | 214 nM | 10.2 µM | 7.41 µM | 174 nM |  | GI50 (SNB-19 [7]): 17.4 µM; GI50 (HL-60 [10]): 105 nM
C=C1CC(Cn2cc(Br)c(=O)[nH]c2=O)(c2ccc(F)cc2)OC1=O (configuration not stated) | 3390 nM |  | 19.5 µM | 11.7 µM | 16.2 µM | 2750 nM |  | 4.57 µM | 16.6 µM | 12.9 µM | 4.07 µM | 8.51 µM | 17 µM | 4.47 µM | 1740 nM |  |  | 14.5 µM | 2240 nM |  | GI50 (RPMI-8226 [12]): 468 nM; GI50 (NCI-H460 [13]): 20.9 µM
C=C1CC(Cn2ccc(=O)[nH]c2=O)(c2ccc(F)cc2)OC1=O (configuration not stated) | 6030 nM | 17 µM | 14.8 µM | 16.2 µM | 15.1 µM | 4900 nM | 3020 nM | 7.59 µM | 15.1 µM | 13.2 µM | 10.7 µM | 15.5 µM | 14.5 µM | 13.2 µM | 3720 nM | 5370 nM | 13.8 µM |  |  | 20.4 µM | 
C=C1CC(Cn2cc(Br)c(=O)[nH]c2=O)(c2ccc(-c3ccccc3)cc2)OC1=O (configuration not stated) | 851 nM | 6.17 µM |  | 1.26 µM | 1.07 µM | 282 nM |  | 1.55 µM | 6.03 µM | 1.2 µM | 1 µM | 5.75 µM | 0.126 µM | 2.51 µM |  | 129 nM | 10.5 µM | 4.79 µM | 355 nM |  | GI50 (SNB-19 [15]): 14.5 µM; GI50 (HL-60 [16]): 45.7 nM
C=C1CC(Cn2cc(C)c(=O)[nH]c2=O)(c2ccc(-c3ccccc3)cc2)OC1=O (configuration not stated) | 1740 nM | 12.3 µM | 16.6 µM | 2.51 µM | 1.66 µM | 1020 nM |  | 3.72 µM | 13.5 µM | 1.91 µM | 2 µM | 13.2 µM | 1.58 µM | 7.59 µM |  | 646 nM | 13.8 µM |  | 1410 nM | 25.7 µM | GI50 (HL-60 [17]): 234 nM
